# Results as given in patent publication US20260049071A1, “PROTEIN TYROSINE KINASE INHIBITOR AND MEDICAL USE THEREOF” (BEYANG THERAPEUTICS CO., LTD., priority 2022, published 2026).
# Key:
# [1] = target: KDR (VEGFR2) (Homo sapiens (Human), UniProt P35968); assay: Kinase inhibition, Mobility Shift Assay (VEGFR2); assay type: biochemical
# Experimental: (§1) This assay directly monitored the ability of compounds to inhibit kinase phosphorylation by measuring non-phosphorylated and phosphorylated substrates in kinase reactions by using Mobility Shift Assays/IMAP™ analysis.
# (§2) Add the kinase and DTT to 1× kinase buffer to form a 2.5× kinase solution; transfer 10 μL of 2.5× kinase solution to a 384-well reaction plate and add 1× kinase buffer to negative control wells. Incubate the plate for 10 min at room temperature; add FAM-labeled peptides, MgCl2, ATP and other reagents to 1× kinase buffer to form a 2.5× substrate solution; transfer 10 μL of the above 2.5× substrate solution to the 384-well reaction plate; incubate the plate at 28° C. for different times, and add 25 μL of stop solution to the 384-well reaction plate to stop the reaction. Read the conversion ratio data on CaliperEZ Reader II. Convert conversion rates into inhibition ratio data.
# (§3) “Min” indicates the readout of the control well without the addition of kinase; and “Max” indicates the readout of the control well with the addition of DMSO. Fit IC50 values with XLFit excel add-in version 5.4.0.8.
# (§4) X indicates the log value of compound concentration, and Y indicates the inhibition ratio (% inhibition).
# [2] = target: EGFR (Homo sapiens (Human), UniProt P00533); assay: Kinase inhibition, Mobility Shift Assay (EGFR); assay type: biochemical
# Sequence of EGFR (P00533 25-1210): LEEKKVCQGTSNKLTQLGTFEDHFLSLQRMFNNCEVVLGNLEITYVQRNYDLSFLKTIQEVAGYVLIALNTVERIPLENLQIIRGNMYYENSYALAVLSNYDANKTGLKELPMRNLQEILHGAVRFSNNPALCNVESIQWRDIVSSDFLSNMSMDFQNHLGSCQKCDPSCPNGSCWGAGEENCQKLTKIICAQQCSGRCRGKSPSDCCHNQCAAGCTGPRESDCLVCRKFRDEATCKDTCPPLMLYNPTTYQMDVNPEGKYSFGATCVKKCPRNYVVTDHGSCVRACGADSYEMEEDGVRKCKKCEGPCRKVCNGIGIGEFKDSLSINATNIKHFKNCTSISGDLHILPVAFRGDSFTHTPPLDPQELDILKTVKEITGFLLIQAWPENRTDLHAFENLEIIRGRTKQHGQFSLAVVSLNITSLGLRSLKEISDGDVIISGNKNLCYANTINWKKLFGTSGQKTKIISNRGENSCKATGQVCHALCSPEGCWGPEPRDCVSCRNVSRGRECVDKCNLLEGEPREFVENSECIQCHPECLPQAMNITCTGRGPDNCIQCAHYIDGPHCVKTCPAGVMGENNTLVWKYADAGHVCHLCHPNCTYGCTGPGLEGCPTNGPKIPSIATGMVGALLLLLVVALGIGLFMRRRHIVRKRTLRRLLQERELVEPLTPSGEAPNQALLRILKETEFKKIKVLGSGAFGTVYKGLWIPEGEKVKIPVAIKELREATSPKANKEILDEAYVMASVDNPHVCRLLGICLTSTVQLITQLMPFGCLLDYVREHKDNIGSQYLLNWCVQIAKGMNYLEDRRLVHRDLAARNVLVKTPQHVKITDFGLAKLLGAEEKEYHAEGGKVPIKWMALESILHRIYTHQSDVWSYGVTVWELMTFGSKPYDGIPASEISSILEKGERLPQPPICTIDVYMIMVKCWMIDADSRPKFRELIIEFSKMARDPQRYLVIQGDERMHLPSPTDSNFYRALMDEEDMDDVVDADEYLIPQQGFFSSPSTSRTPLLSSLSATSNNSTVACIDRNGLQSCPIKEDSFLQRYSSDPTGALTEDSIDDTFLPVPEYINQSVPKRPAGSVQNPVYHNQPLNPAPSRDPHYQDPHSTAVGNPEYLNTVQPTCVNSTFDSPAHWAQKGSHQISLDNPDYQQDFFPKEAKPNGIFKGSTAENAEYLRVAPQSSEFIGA
# Experimental: as §1, §2, §3, §4
# Sequence of KDR (VEGFR2) (P35968 790-1356): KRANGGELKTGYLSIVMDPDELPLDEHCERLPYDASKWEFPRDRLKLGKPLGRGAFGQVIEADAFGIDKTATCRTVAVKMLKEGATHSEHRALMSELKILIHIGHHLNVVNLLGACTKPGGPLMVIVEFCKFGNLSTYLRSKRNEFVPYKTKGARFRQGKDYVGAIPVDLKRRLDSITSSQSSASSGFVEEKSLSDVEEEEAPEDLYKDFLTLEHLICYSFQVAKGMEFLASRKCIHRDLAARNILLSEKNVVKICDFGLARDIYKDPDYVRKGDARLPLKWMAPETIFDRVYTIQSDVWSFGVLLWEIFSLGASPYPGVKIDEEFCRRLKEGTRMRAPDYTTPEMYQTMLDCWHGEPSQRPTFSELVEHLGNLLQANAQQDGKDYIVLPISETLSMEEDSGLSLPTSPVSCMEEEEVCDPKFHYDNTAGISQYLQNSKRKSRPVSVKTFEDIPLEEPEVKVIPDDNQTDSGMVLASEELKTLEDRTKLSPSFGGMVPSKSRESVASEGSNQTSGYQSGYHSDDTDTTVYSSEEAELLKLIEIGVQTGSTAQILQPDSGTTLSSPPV
SMILES,IC50 [1] [nM],IC50 [2] [nM]
"O=C(NC1CC1)c1cc(F)ccc1Sc1ccc2c(/C=C/c3cnn(CCCN4CCCC4)c3)n[nH]c2c1 [Compound I-46, N-cyclopropyl-5-fluoro-2-({3-[(E)-2-{1-[3-(pyrrolidin-1-yl)propyl]-1H-pyrazol-4-yl}vinyl]-1H-indazol-6-yl}thio)benzamide]",≤ 1,6000 to 60000
"O=C(NC1CC1)c1ccccc1Sc1ccc2c(/C=C/c3ccn(CCN4CCCC4)n3)n[nH]c2c1 [Compound I-60, N-cyclopropyl-2-({3-[(E)-2-{1-[2-(pyrrolidin-1-yl)ethyl]-1H-pyrazol-3-yl}vinyl]-1H-indazol-6-yl}thio)benzamide]",1 to 10,600 to 6000
O=C(NC1CC1)c1cccc(F)c1Sc1ccc2c(/C=C/c3ccn(CCN4CCCC4)n3)n[nH]c2c1 [Compound I-69],10 to 100,6000 to 60000
"CNC(=O)c1ccccc1Sc1ccc2c(/C=C/c3ccc(CN4CCCC4)cn3)n[nH]c2c1 [Compound I-74, N-methyl-2-({3-[(E)-2-{5-[(pyrrolidin-1-yl)methyl]pyridin-2-yl}vinyl]-1H-indazol-6-yl}thio)benzamide]",1 to 10,6000 to 60000
"CCNC(=O)c1cccc(F)c1Sc1ccc2c(/C=C/c3ccc(CN4CCCC4)cn3)n[nH]c2c1 [Compound I-75, N-ethyl-3-fluoro-2-({3-[(E)-2-{5-[(pyrrolidin-1-yl)methyl]pyridin-2-yl}vinyl]-1H-indazol-6-yl}thio)benzamide]",1 to 10,6000 to 60000
"O=C(NC1CC1)c1ccccc1Oc1ccc2c(/C=C/c3ccc(CN4CCCC4)cn3)n[nH]c2c1 [Compound I-81, N-cyclopropyl-2-({3-[(E)-2-{5-[(pyrrolidin-1-yl)methyl]pyridin-2-yl}vinyl]-1H-indazol-6-yl}oxy)benzamide]",10 to 100,6000 to 60000
"CCNC(=O)c1ccc(Sc2ccc3c(/C=C/c4ccc(CN(CC)CC)cn4)n[nH]c3c2)cc1F [Compound I-87, 4-({3-[(E)-2-{5-[(diethylamino)methyl]pyridin-2-yl}vinyl]-1H-indazol-6-yl}thio)-N-ethyl-2-fluorobenzamide]",> 100,> 60000
"CCN(CC)Cc1ccc(/C=C/c2n[nH]c3cc(Sc4cc(F)ccc4C(=O)NC)ccc23)nc1 [Compound I-92, 2-({3-[(E)-2-{5-[(diethylamino)methyl]pyridin-2-yl}vinyl]-1H-indazol-6-yl}thio)-4-fluoro-N-methylbenzamide]",1 to 10,6000 to 60000
"CNC(=O)c1cc(F)ccc1Sc1ccc2c(/C=C/c3ccc(CN4CCCC4)cn3)n[nH]c2c1 [Compound I-95, 5-fluoro-N-methyl-2-({3-[(E)-2-{5-[(pyrrolidin-1-yl)methyl]pyridin-2-yl}vinyl]-1H-indazol-6-yl}thio)benzamide]",1 to 10,6000 to 60000
CCNC(=O)c1cccc(F)c1Sc1ccc2c(/C=C/c3cnn(CCCN4CCCC4)c3)n[nH]c2c1 [Compound I-102],10 to 100,6000 to 60000
"CCNC(=O)c1ccc(F)cc1Sc1ccc2c(/C=C/c3cnn(CCCN4CCCC4)c3)n[nH]c2c1 [Compound I-103, N-ethyl-4-fluoro-2-({3-[(E)-2-{1-[3-(pyrrolidin-1-yl)propyl]-1H-pyrazol-4-yl}vinyl]-1H-indazol-6-yl}thio)benzamide]",≤ 1,6000 to 60000
"CCN(CC)CCc1ccc(/C=C/c2n[nH]c3cc(Sc4cc(F)ccc4C(=O)NC4CC4)ccc23)nc1 [Compound I-108, N-cyclopropyl-2-({3-[(E)-2-{5-[2-(diethylamino)ethyl]pyridin-2-yl}vinyl]-1H-indazol-6-yl}thio)-4-fluorobenzamide]",≤ 1,6000 to 60000
"CCNC(=O)c1cccc(F)c1Sc1ccc2c(/C=C/c3ccc(CN(CC)CC)cn3)n[nH]c2c1 [Compound I-111, 2-({3-[(E)-2-{5-[(diethylamino)methyl]pyridin-2-yl}vinyl]-1H-indazol-6-yl}thio)-N-ethyl-3-fluorobenzamide]",1 to 10,6000 to 60000
"O=C(NC1CC1)c1cccc(F)c1Sc1ccc2c(/C=C/c3cc(OCCN4CCCC4)ccn3)n[nH]c2c1 [Compound I-112, N-cyclopropyl-3-fluoro-2-({3-[(E)-2-{4-[2-(pyrrolidin-1-yl)ethoxy]pyridin-2-yl}vinyl]-1H-indazol-6-yl}thio)benzamide]",10 to 100,6000 to 60000
"CCNC(=O)c1cccc(F)c1Sc1ccc2c(/C=C/c3cc(CN4CCCC4)ccn3)n[nH]c2c1 [Compound I-114, N-ethyl-3-fluoro-2-({3-[(E)-2-{4-[(pyrrolidin-1-yl)methyl]pyridin-2-yl}vinyl]-1H-indazol-6-yl}thio)benzamide]",> 100,> 60000
"CCNC(=O)c1cc(F)ccc1Sc1ccc2c(/C=C/c3cc(CCCN4CCCC4)ccn3)n[nH]c2c1 [Compound I-122, N-ethyl-5-fluoro-2-({3-[(E)-2-{4-[3-(pyrrolidin-1-yl)propyl]pyridin-2-yl}vinyl]-1H-indazol-6-yl}thio)benzamide]",1 to 10,> 60000
O=C(NC1CC1)c1cccc(F)c1Sc1ccc2c(/C=C/c3cc(CCCN4CCCC4)ccn3)n[nH]c2c1 [Compound I-123],10 to 100,> 60000
O=C(NC1CC1)c1cccc(F)c1Sc1ccc2c(/C=C/c3cccc(CCCN4CCCC4)n3)n[nH]c2c1 [Compound I-124],10 to 100,6000 to 60000
"O=C(NC1CC1)c1cccc(F)c1Sc1ccc2c(/C=C/c3cccc(CCN4CCCC4)n3)n[nH]c2c1 [Compound I-128, N-cyclopropyl-3-fluoro-2-({3-[(E)-2-{6-[2-(pyrrolidin-1-yl)ethyl]pyridin-2-yl}vinyl]-1H-indazol-6-yl}thio)benzamide]",10 to 100,> 60000
"CCNC(=O)c1cccc(F)c1Sc1ccc2c(/C=C/c3cccc(CCN4CCCC4)n3)n[nH]c2c1 [Compound I-129, N-ethyl-3-fluoro-2-({3-[(E)-2-{6-[2-(pyrrolidin-1-yl)ethyl]pyridin-2-yl}vinyl]-1H-indazol-6-yl}thio)benzamide]",10 to 100,> 60000
"O=C(NC1CC1)c1cc(F)ccc1Sc1ccc2c(/C=C/c3cccc(CCCN4CCCC4)n3)n[nH]c2c1 [Compound I-132, N-cyclopropyl-5-fluoro-2-({3-[(E)-2-{6-[3-(pyrrolidin-1-yl)propyl]pyridin-2-yl}vinyl]-1H-indazol-6-yl}thio)benzamide]",1 to 10,6000 to 60000
"O=C(NC1CC1)c1ccccc1Sc1ccc2c(/C=C/c3cc(CCN4CCCC4)ccn3)n[nH]c2c1 [Compound I-133, N-cyclopropyl-2-({3-[(E)-2-{4-[2-(pyrrolidin-1-yl)ethyl]pyridin-2-yl}vinyl]-1H-indazol-6-yl}thio)benzamide]",1 to 10,> 60000
"O=C(NC1CC1)c1cc(F)ccc1Sc1ccc2c(/C=C/c3cc(CCN4CCCC4)ccn3)n[nH]c2c1 [Compound I-135, N-cyclopropyl-5-fluoro-2-({3-[(E)-2-{4-[2-(pyrrolidin-1-yl)ethyl]pyridin-2-yl}vinyl]-1H-indazol-6-yl}thio)benzamide]",10 to 100,> 60000
"O=C(NC1CC1)c1cc(F)ccc1Sc1ccc2c(/C=C/c3cccc(CCN4CCCC4)n3)n[nH]c2c1 [Compound I-136, N-cyclopropyl-5-fluoro-2-({3-[(E)-2-{6-[2-(pyrrolidin-1-yl)ethyl]pyridin-2-yl}vinyl]-1H-indazol-6-yl}thio)benzamide]",1 to 10,> 60000
"O=C(NC1CC1)c1cc(F)ccc1Sc1ccc2c(/C=C/c3cc(CN4CCCC4)ccn3)n[nH]c2c1 [Compound I-137, N-cyclopropyl-5-fluoro-2-({3-[(E)-2-{4-[(pyrrolidin-1-yl)methyl]pyridin-2-yl}vinyl]-1H-indazol-6-yl}thio)benzamide]",1 to 10,> 60000
"O=C(NC1CC1)c1cc(F)ccc1Sc1ccc2c(/C=C/c3cccc(CN4CCCC4)n3)n[nH]c2c1 [Compound I-138, N-cyclopropyl-5-fluoro-2-({3-[(E)-2-{6-[(pyrrolidin-1-yl)methyl]pyridin-2-yl}vinyl]-1H-indazol-6-yl}thio)benzamide]",1 to 10,> 60000
"O=C(NC1CC1)c1ccccc1Sc1ccc2c(C#Cc3ccc(OCCN4CCCC4)cn3)n[nH]c2c1 [Compound I-139, N-cyclopropyl-2-{[3-(2-{5-[2-(pyrrolidin-1-yl)ethoxy]pyridin-2-yl}ethynyl)-1H-indazol-6-yl]thio}benzamide]",10 to 100,> 60000
